Laboratory results reported in patent US20160090351A1, “INHIBITORS OF DEUBIQUITINATING PROTEASES” (BRANDEIS UNIVERSITY, priority 2013, published 2016).

Tests used:
Type in all cases: cell-based, human
Bcr-Abl kinase = assay: Bcr-Abl levels in K562 cells by immunoblotting; conditions: for levels of Bcr-Abl: 50 μM, 2 h
Protocol: (§1) K562 cells are from a myelogenous leukemia line that expresses Bcr-Abl kinase. A. K562 cells were treated with TU50 for 24 hours after which time the cells were treated with annexin V-FITC and propidium iodide. Cells were then analyzed by flow cytometry. Cells showing only annexin V-FITC were considered apoptotic whereas cells showing both annexin V-FITC and propidium iodide were considered necrotic. N=2. All points show a significant difference to the vehicle (DMSO) with p<0.05. […] All points show a significant difference to vehicle (DMSO) with p<0.02. C. Same as A, but the incubation period was 8 hours. N>2. All points show a significant difference to DMSO with p<0.02. D, K562 cells were treated with TU50 for 4 hours. Samples were analyzed by SDS-PAGE and immunoblotting with anti-Bcr-Abl antibody. E. Quantitation of blot in D. The signal for tubulin was used to normalize the Bcr-Abl signal. N=3.
(§2) FIG. 34 depicts data showing that diphenylcarbonates cause the accumulation of HMW-Ub and reduce the levels of Bcr-Abl in K562 cells. A. K562 cells were treated with diphenyl carbonates (50 μM) for 2 h and then assayed for the accumulation of K48-linked Ub. B. As in A, but Bcr-Abl was measured by immunoblotting with anti-Abl antibodies. C. K562 cells were treated with C17 (50 μM) in the presence and absence of bortezomib (6 μM) for 4 hours and Bcr-Abl was measured by immunblotting with anti-Abl antibodies. D. Quantitation of blot in C. Significance: DMSO relative to C17 and bortezomib p=0.002; DMSO relative to C17, p=0.03. E. K562 cells were treated with C15 for 4 hours then analyzed for SMAD4 monoubiquitination by western blot. F. Quantitation of blots in A. (N=3). See also FIG. 40.
(§3) FIG. 40 depicts data showing that diphenyl carbonates induce the degradation of Bcr-Abl kinase. A. K562 cells were treated with C17 for 24 h (1 dose) then analyzed for Bcr-Abl expression by western blot with anti-Abl antibody. B. Quantitation of blots in A normalized to actin. C. K562 cells were treated with C17 for 24 h then the amount of cells in G1 and apoptosis were recorded (N=3). D. K562 were treated with C15 for 4 h then analyzed for Bcr-Abl expression using western blot. E. Quantitation of Bcr-Abl from D normalized to tubulin (N=4). F. Same K562 lysates were separately analyzed for K63-linked ubiquitin. G. Quantitation of blots in F (N=4). Differences between all bars is significant p<0.01). H. K562 cells were treated with C15 for 24 h after which time cells were fixed in ethanol, treated with propodium iodide/RNAse then analyzed by FACS. Viability was calculated using forward and side scatter. I. Same experiment as H but red fluorescence was measured to determine DNA content
(§4) Transfected cells were harvested 1.5 days post transfection. […] Typically clarified lysate was analyzed.

K562 cells [1] = assay: accumulation of K48- and K63-linked Ub in K562 cells; conditions: for accumulation of K48-linked HMW-Ub: 50 μM, 2 h
Protocol: as §2, §3, §4

USP9x and USP7 = assay: HA-Ub-VS activity profiling of lysates from treated HEK 293T cells, USPs; conditions: 100 μM, 2 hours
Protocol: FIG. 32 depicts data showing that diphenyl carbonates inhibit DUBs in HEK 293T cells. A. Viability of HEK 293T cells assessed by the propidium iodide exclusion method: diphenyl carbonate (100 μM), bortezomib (V, 20 μM) and G5 (2 μM). N≧3, mean+/−s.d. B. HEK 293T cells were treated with the stated compounds (50 μM) for 2 h and then assayed for the accumulation of K48-linked Ub species. C. As in A, but K63-linked Ub was assayed. D. HEK 293T cells were treated with C14, C15, C17, C18 (100 μM) or DMSO for 2 hours, then harvested, lysed and treated with HA-Ub-VS. After 30 min, lysates were analyzed by SDS-PAGE and probed for HA, tubulin and actin. An intervening lane was removed for clarity. E. HEK 293T cells expressing Ub-G76V-GFP were treated with diphenyl carbonates (100 μM), bortezomib (20 μM) and G5 (2 μM). […] N>3, Mean+/−s.d. See also FIG. 39.
Lysate labeling assay on untransfected cells (1.5 mg/mL) was run with the stated concentration of inhibitor (or 1% DMSO control) for between 19-60 mins. After this time HA-Ub-VS (1.5-0.7 μM) was added and incubated for 19 mins. After this time reaction mixture (9 μL) was removed and quenched in 2× (final concentration) reducing loading buffer. […]
Lysates from HEK 293T cells treated with diphenylcarbonates were analyzed by HA-Ub-VS activity profiling to assess the selectivity of DUB inhibition in the context of a cell.

K562 cells [2] = assay: apoptosis, cell cycle and viability of K562 cells by flow cytometry; conditions: K562 cells
Protocol: as §1, §3

SMILES	levels of Bcr-Abl (Bcr-Abl kinase)	accumulation of K48-linked HMW-Ub (K562 cells [1])	HA-Ub-VS labeling of USP9x and USP7 after treatment of cells (USP9x and USP7)	G1 and apoptotic cells (K562 cells [2]; 24 h incubation)	viability, G1 and apoptotic cells (K562 cells [2]; 24 h, at 50 μM)	Bcr-Abl, dose response (Bcr-Abl kinase; C15 4 h)	accumulation of K63-linked ubiquitin (K562 cells [1]; C15 4 h)
NCc1ccc(OC(=O)Oc2cccc3ccccc23)cc1 [Compound C18]	caused a decrease in the levels of Bcr-Abl	caused the accumulation of K48-linked HMW-Ub in K562 cells	most potent compounds	–	–	–	–
NCc1ccc(OC(=O)Oc2ccc(Cl)cc2)cc1 [Compound C14, 4-(aminomethyl)phenyl(4-chlorophenol)carbonate]	caused a decrease in the levels of Bcr-Abl	caused the accumulation of K48-linked HMW-Ub in K562 cells	–	–	–	–	–
NCc1ccc(OC(=O)Oc2ccc3ccccc3c2)cc1 [Compound C17]	caused a decrease in the levels of Bcr-Abl	caused the accumulation of K48-linked HMW-Ub in K562 cells	most potent compounds	dose-dependent increase in G1 and apoptotic cells	–	–	–
NCc1ccc(OC(=O)Oc2ccc(Br)cc2)cc1 [Compound C15, 4-(aminomethyl)phenyl(4-bromophenyl)carbonate]	caused a decrease in the levels of Bcr-Abl	caused the accumulation of K48-linked HMW-Ub in K562 cells	–	–	decrease in viability, and increase in G1 and apoptotic cells	dose dependent decrease in Bcr-Abl	caused the accumulation of K63-linked ubiquitin
